Experimental data: patent US8785429B2, “Dihydropyrrolonaphthyridinone compounds as inhibitors of JAK” (Takeda Pharmaceutical Company Limited, priority 2009, dated 2014)

Assays:
JAK3 = biological target: T1, JAK3 (Homo sapiens, UniProt P52333); experiment: Assay for JAK3 Inhibition (phosphorylation of FAM-labeled substrate, Caliper LC-3000); assay type: biochemical; conditions: −log10(IC50), IC50 is the molar concentration at 50% inhibition; read-out: JAK3 pIC50 (converted)
T1 construct: purchased Invitrogen
T1 sequence (P52333 1-1124): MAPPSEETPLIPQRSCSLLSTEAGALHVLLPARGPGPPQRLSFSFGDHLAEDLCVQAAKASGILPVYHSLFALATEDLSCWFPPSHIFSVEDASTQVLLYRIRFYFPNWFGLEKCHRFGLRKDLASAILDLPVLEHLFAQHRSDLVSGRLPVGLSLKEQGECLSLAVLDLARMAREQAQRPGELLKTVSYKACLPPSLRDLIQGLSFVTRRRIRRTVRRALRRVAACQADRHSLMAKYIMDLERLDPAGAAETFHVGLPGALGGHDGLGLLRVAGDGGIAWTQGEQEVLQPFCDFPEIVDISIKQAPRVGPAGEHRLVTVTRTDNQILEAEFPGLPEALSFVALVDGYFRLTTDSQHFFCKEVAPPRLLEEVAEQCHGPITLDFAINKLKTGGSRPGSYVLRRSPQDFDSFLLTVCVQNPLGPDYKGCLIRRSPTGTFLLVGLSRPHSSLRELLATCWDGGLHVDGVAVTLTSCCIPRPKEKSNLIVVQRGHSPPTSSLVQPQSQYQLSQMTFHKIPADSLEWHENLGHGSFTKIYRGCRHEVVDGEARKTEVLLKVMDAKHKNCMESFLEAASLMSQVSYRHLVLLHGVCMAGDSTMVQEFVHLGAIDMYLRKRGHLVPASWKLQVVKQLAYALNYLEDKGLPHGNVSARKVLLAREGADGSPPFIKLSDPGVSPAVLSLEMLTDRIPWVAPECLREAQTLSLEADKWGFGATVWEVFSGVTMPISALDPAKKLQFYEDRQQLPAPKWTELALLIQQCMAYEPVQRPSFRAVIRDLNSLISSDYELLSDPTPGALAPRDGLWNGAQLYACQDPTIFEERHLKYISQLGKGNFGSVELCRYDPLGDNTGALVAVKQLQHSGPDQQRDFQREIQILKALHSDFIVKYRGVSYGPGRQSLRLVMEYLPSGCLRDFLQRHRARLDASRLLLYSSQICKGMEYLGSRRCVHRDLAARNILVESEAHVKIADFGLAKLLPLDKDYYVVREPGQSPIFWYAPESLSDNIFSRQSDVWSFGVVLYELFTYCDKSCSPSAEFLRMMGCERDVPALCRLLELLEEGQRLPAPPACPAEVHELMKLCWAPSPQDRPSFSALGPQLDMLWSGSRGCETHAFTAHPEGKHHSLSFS
Procedure: (§1) A compound's ability to inhibit JAK activity may be assessed using a variety of methods, including in vitro and in vivo assays. The following in vitro assays measure a test compound's ability to inhibit JAK2- and JAK3-mediated phosphorylation of FAM-labeled JAK-specific substrates.
(§2) Purified JAK2 and JAK3 proteins were purchased from Invitrogen. JAK2 and JAK3 inhibition is determined using a black 384-well-plate format in buffer containing 50 mM HEPES, 10 mM NaCl, 10 mM MgCl2, 0.2 mM EDTA, 0.01% EDA (Brij® 35), 1 mM DTT, 0.1 mg/mL BSA at pH 7.3. Each test compound is prepared in DMSO using 2-fold serial dilutions for 11 data points and is added to the buffer so that each dilution contains 3% DMSO.
(§3) To each well is added 2 μL of 3 μM 5FAM-KKKKEEIYFFFG-NH2 and 15 μM ATP (in buffer), 2 μL of diluted test compound (3% DMSO in medium), and 2 μL of 1.2 nM JAK3 in buffer. The reaction mixture is incubated at room temperature for 60 min and is quenched by adding 50 mM HEPES, 30 mM EDTA, and 0.1% Tx-100 (pH 7.3). To quantify the fluorescent-labeled substrate and product following reaction, the test plate is loaded on a Caliper LC-3000, which measures percent of conversion by microfluidic-based separation.
(§4) Corresponding IC50 values are calculated by non-linear curve fitting of the compound concentrations and percent of inhibition to the standard IC50 equation.

JAK2 = biological target: T2, JAK2 (Homo sapiens, UniProt O60674); experiment: Assay for JAK2 Inhibition (phosphorylation of FAM-labeled substrate, Caliper LC-3000); assay type: biochemical; conditions: −log10(IC50), IC50 is the molar concentration at 50% inhibition; read-out: JAK2 pIC50 (converted)
T2 construct: purchased Invitrogen
T2 sequence (O60674 whole entry): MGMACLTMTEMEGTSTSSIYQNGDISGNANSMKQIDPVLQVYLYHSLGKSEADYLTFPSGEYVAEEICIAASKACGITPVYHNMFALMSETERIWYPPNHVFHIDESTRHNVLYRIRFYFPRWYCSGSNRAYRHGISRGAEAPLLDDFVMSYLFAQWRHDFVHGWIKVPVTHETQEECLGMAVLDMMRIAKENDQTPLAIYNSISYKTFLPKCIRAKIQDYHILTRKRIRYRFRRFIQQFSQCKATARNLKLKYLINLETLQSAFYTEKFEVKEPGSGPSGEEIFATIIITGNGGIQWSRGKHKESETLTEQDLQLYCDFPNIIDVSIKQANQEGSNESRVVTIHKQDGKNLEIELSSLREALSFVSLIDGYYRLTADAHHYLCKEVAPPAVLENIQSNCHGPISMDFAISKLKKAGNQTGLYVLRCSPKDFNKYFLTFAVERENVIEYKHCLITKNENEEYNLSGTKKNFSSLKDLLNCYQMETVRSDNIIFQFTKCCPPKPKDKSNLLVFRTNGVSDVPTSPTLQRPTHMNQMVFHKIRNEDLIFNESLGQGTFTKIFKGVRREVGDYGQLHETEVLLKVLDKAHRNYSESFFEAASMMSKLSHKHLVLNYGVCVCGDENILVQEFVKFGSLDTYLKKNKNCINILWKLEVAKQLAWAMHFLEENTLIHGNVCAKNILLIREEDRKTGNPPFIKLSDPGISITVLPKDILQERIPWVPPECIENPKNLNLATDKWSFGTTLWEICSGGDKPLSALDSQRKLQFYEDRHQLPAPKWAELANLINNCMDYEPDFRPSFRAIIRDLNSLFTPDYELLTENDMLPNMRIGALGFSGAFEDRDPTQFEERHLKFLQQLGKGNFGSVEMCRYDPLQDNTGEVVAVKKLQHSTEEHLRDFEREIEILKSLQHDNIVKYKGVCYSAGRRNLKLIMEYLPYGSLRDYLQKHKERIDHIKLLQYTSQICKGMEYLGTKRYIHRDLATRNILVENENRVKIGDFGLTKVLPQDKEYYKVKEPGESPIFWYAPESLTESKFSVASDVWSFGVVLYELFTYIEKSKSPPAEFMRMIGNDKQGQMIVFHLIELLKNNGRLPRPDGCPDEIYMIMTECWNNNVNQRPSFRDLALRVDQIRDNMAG
Procedure: as §1, §2
as §3, with “45” for “15”, “0.6” for “1.2”, “JAK2” for “JAK3”, “HEPeX,” for “HEPES,”
as §4

SMILES	IC50 (JAK3) [nM]	IC50 (JAK2) [nM]
CC(C)[C@H](C(=O)NC1CCOC1)N1Cc2c(F)cnc3[nH]cc(c23)C1=O (stereo partly drawn) [Example 44, (2R)-2-(6-fluoro-3-oxopyrrolo[4,3,2-de][2,6]naphthyridin-4(1H,3H,5H)-yl)-3-methyl-N-(tetrahydrofuran-3-yl)butanamide]	126	1580
CC(C)[C@H](C(=O)NC1CCS(=O)(=O)C1)N1Cc2c(F)cnc3[nH]cc(c23)C1=O (stereo partly drawn) [Example 45, (R)-2-(6-fluoro-3-oxopyrrolo[4,3,2-de][2,6]naphthyridin-4(1H,3H,5H)-yl)-3-methyl-N-(1,1-dioxidotetrahydrothien-3-yl)butanamide]	63.1	2000
CC(C)[C@H](C(=O)NCCS(C)(=O)=O)N1Cc2c(F)cnc3[nH]cc(c23)C1=O [Example 46, (R)-2-(6-fluoro-3-oxopyrrolo[4,3,2-de][2,6]naphthyridin-4(1H,3H,5H)-yl)-3-methyl-N-(2-(methylsulfonyl)ethyl)butanamide]	251	1580
CC(C)[C@H](C(=O)NC1CCS(=O)(=O)CC1)N1Cc2c(F)cnc3[nH]cc(c23)C1=O [Example 47, (R)—N-(1,1-dioxidotetrahydro-2H-thiopyran-4-yl)-2-(6-fluoro-3-oxopyrrolo[4,3,2-de][2,6]naphthyridin-4(1H,3H,5H)-yl)-3-methylbutanamide]	126	2510
CC(C)[C@H](C(=O)N1CCS(=O)(=O)CC1)N1Cc2c(F)cnc3[nH]cc(c23)C1=O [Example 48, 4-{(1R)-1-[(1,1-dioxidothiomorpholin-4-yl)carbonyl]-2-methylpropyl}-6-fluoro-4,5-dihydropyrrolo[4,3,2-de][2,6]naphthyridin-3(1H)-one]	251	5010
CC(C)[C@H](C(=O)NOCC1CC1)N1Cc2c(F)cnc3[nH]cc(c23)C1=O [Example 49, (R)—N-(cyclopropylmethoxy)-2-(6-fluoro-3-oxopyrrolo[4,3,2-de][2,6]naphthyridin-4(1H,3H,5H)-yl)-3-methylbutanamide]	100	2000
CC(C)[C@H](C(=O)NC1CCC(F)(F)C1)N1Cc2c(F)cnc3[nH]cc(c23)C1=O (stereo partly drawn) [Example 50, (2R)—N-(3,3-difluorocyclopentyl)-2-(6-fluoro-3-oxopyrrolo[4,3,2-de][2,6]naphthyridin-4(1H,3H,5H)-yl)-3-methylbutanamide]	79.4	1580
CC(C)[C@H](C(=O)N1CC(C#N)(CF)C1)N1Cc2ccnc3[nH]cc(c23)C1=O [Example 51, (R)-3-(fluoromethyl)-1-(3-methyl-2-(3-oxopyrrolo[4,3,2-de][2,6]naphthyridin-4(1H,3H,5H)-yl)butanoyl)azetidine-3-carbonitrile]	5.01	158
CC(C)[C@H](C(=O)N1CC(C)(C#N)C1)N1Cc2c(F)cnc3[nH]cc(c23)C1=O [Example 52, (R)-1-(2-(6-fluoro-3-oxopyrrolo[4,3,2-de][2,6]naphthyridin-4(1H,3H,5H)-yl)-3-methylbutanoyl)-3-methylazetidine-3-carbonitrile]	10	200
CC(C)[C@H](C(=O)N1CC(C)(C#N)C1)N1Cc2ccnc3[nH]cc(c23)C1=O [Example 53, (R)-3-methyl-1-(3-methyl-2-(3-oxopyrrolo[4,3,2-de][2,6]naphthyridin-4(1H,3H,5H)-yl)butanoyl)azetidine-3-carbonitrile]	12.6	251
CC[C@H](C(=O)N1CCOCC1)N1Cc2ccnc3[nH]cc(c23)C1=O [Example 54, (R)-4-(1-morpholino-1-oxobutan-2-yl)-4,5-dihydropyrrolo[4,3,2-de][2,6]naphthyridin-3(1 H)-one]	2000	31600
CC[C@H](C(=O)N1CCN(C)CC1)N1Cc2ccnc3[nH]cc(c23)C1=O [Example 55, (R)-4-(1-(4-methylpiperazin-1-yl)-1-oxobutan-2-yl)-4,5-dihydropyrrolo[4,3,2-de][2,6]naphthyridin-3(1 H)-one]	1000	12600
CC[C@H](C(=O)N1CCC(O)C1)N1Cc2ccnc3[nH]cc(c23)C1=O (stereo partly drawn) [Example 56, 4-((2R)-1-(3-hydroxypyrrolidin-1-yl)-1-oxobutan-2-yl)-4,5-dihydropyrrolo[4,3,2-de][2,6]naphthyridin-3(1 H)-one]	631	10000
CC[C@H](C(=O)NC1CCCC1)N1Cc2ccnc3[nH]cc(c23)C1=O [Example 57, (R)—N-cyclopentyl-2-(3-oxopyrrolo[4,3,2-de][2,6]naphthyridin-4(1H,3H,5H)-yl)butanamide]	79.4	1580
CC[C@H](C(=O)N1CCC(c2ccc(F)cc2)C1)N1Cc2ccnc3[nH]cc(c23)C1=O (stereo partly drawn) [Example 58, 4-((2R)-1-(3-(4-fluorophenyl)pyrrolidin-1-yl)-1-oxobutan-2-yl)-4,5-dihydropyrrolo[4,3,2-de][2,6]naphthyridin-3(1 H)-one]	316	3160
CC[C@H](C(=O)N1CCC(N(C)C)C1)N1Cc2ccnc3[nH]cc(c23)C1=O (stereo partly drawn) [Example 59, 4-((2R)-1-(3-(dimethylamino)pyrrolidin-1-yl)-1-oxobutan-2-yl)-4,5-dihydropyrrolo[4,3,2-de][2,6]naphthyridin-3(1 H)-one]	6310	20000
CC[C@H](C(=O)N1CCC(COC)C1)N1Cc2ccnc3[nH]cc(c23)C1=O (stereo partly drawn) [Example 60, 4-((2R)-1-(3-(methoxymethyl)pyrrolidin-1-yl)-1-oxobutan-2-yl)-4,5-dihydropyrrolo[4,3,2-de][2,6]naphthyridin-3(1 H)-one]	794	10000
CC[C@H](C(=O)N1CCCC(C)C1)N1Cc2ccnc3[nH]cc(c23)C1=O (stereo partly drawn) [Example 61, 4-((2R)-1-(3-methylpiperidin-1-yl)-1-oxobutan-2-yl)-4,5-dihydropyrrolo[4,3,2-de][2,6]naphthyridin-3(1 H)-one]	6310	20000
CC[C@H](C(=O)N1CCC(C(C)(C)O)CC1)N1Cc2ccnc3[nH]cc(c23)C1=O [Example 62, (R)-4-(1-(4-(2-hydroxypropan-2-yl)piperidin-1-yl)-1-oxobutan-2-yl)-4,5-dihydropyrrolo[4,3,2-de][2,6]naphthyridin-3(1 H)-one]	1580	12600
CC[C@H](C(=O)N1CCN(S(C)(=O)=O)CC1)N1Cc2ccnc3[nH]cc(c23)C1=O [Example 63, (R)-4-(1-(4-(methylsulfonyl)piperazin-1-yl)-1-oxobutan-2-yl)-4,5-dihydropyrrolo[4,3,2-de][2,6]naphthyridin-3(1 H)-one]	631	6310
CC[C@H](C(=O)N1CCN(c2ccccn2)CC1)N1Cc2ccnc3[nH]cc(c23)C1=O [Example 64, (R)-4-(1-oxo-1-(4-(pyridin-2-yl)piperazin-1-yl)butan-2-yl)-4,5-dihydropyrrolo[4,3,2-de][2,6]naphthyridin-3(1 H)-one]	2510	20000
